Assay results: patent US20220289685A1, “ANTIMALARIAL HEXAHYDROPYRIMIDINE ANALOGUES” (UCB BIOPHARMA SRL, priority 2019, published 2022)
Structures can show the parent of a compound that is named as a salt.

Each compound was assayed on Plasmodium falciparum 3D7 strain (assay: P. falciparum 3D7 asexual blood stage assay (SYBR green readout)). Conditions: Plasmodium falciparum, 3D7, Erythrocyte, 72 h.
Type: cell-based
Description: Asexual Blood Stage Assay
The assay used to measure the effect of test compounds on a bloodstream stage of Plasmodium falciparum: 3D7 strain employs SYBR green as the readout. This is a dye that binds to double stranded deoxyribonucleic acid (DNA) with a resulting increase in fluorescence, allowing detection of P. falciparum DNA in infected erythrocytes, and thereby providing a measure of parasite growth and propagation.
P. falciparum Culture Maintenance
Erythrocytes (A+ blood) were prepared for both parasite culture and assay by washing 4 times with incomplete media (15.9 g RPMI 1640 (25 mM HEPES, L-glutamine), 1 g NaHCO3, 2 g glucose, 400 μL gentacin (500 mg/mL), 2 mL hypoxanthine solution (13.6 g/L in 0.1M NaOH pH 7.3) in 1 litre of media). The cells were centrifuged at 1800 g for 5 minutes, before decanting the supernatant and re-suspending in fresh incomplete media. On the final wash, the cells were re-suspended in complete media (incomplete media with 5 g/L AlbumaxII), and centrifuged at 1800 g for 3 minutes. This cell sediment was treated as 100% haematocrit.
P. falciparum 3D7 was cultured in erythrocytes at 5% haematocrit in complete media at 37° C. (1% O2, 3% CO2, balance N2). Cultures were split on a weekly basis to achieve a 1% parasitaemia in erythrocites at 5% haematocrit in fresh media. Culture media is replaced by fresh media every other day (2 times during the week).
On day 1, test compounds were added to assay plates using Echo dispensing technology ([…] and 20 points titration). 50 nL of each compound dilution was added to 50 μL of culture (5% haematocrit, 0.5% parasitaemia) and incubated for 72 h at 37° C. (1% O2, 3% CO2, balance N2). Final concentrations of test compounds ranged from 50,000 nM to 15 nM, in […].
On day 4, 10 μL SYBR green (Invitrogen S7563 supplied as 10,000× concentrate in DMSO) pre-diluted to 3× concentrate with Lysis buffer (20 mM Tris pH 7.9, 5% EDTA, 0.16% w/v, 1.6% TX100 v/v) was added to the cultures and incubated in the dark, overnight, at room temperature.
On day 5, fluorescent signal was measured using a BioTek plate reader (excitation 485 nm, emission 528 nm). All data were processed using IDBS ActivityBase. Raw data were converted into percent inhibition through linear regression by setting the high inhibition control (mefloquine) as 100% and the no inhibition control (DMSO) as 0%. Quality control criteria for passing plates were as follows: Z′>0.5, S:B>3, 30% CV(no inhibition control)<15. The formula used to calculate Z′ is: […]
All EC50 curve fitting was undertaken using the following bi-phasic two site dose response using XLfit model 300 (IDBS):
where A=100 minus the top of the upper curve 1 and the bottom of lower curve; B=Hill slope; log(C)=IC50 concentration at lower site; log(D)=IC50 concentration at upper site; x=inhibitor concentration; and y=% inhibition.
`C[C@@H]1C[C@H](N2C(=N)N[C@](C)(c3cccc(NC(=O)c4cncc(Cl)c4)c3Cl)CC2=O)CCO1` (relative stereo) [Example 39, 5-Chloro-N-(2-chloro-3-{(4S)-2-imino-4-methyl-1-[(2R*,4R*)-2-methyltetrahydropyran-4-yl]-6-oxo-hexahydropyrimidin-4-yl}phenyl)-pyridine-3-carboxamide trifluoroacetic acid salt] showed an IC50 of 19 nM. For `Cc1nccc(C(F)(F)F)c1C(=O)Nc1cccc([C@]2(C)CC(=O)N([C@@H]3CCO[C@H](C)C3)C(=N)N2)c1Cl` (relative stereo) [Example 111, N-(2-Chloro-3-{(4S)-2-imino-4-methyl-1-[(2R*,4R*)-2-methyl-tetrahydropyran-4-yl]-6-oxo-hexahydropyrimidin-4-yl}phenyl)-2-methyl-4-(trifluoromethyl)-pyridine-3-carboxamide hydrochloride], the IC50 was 418 nM. Compound `C[C@@H]1C[C@H](N2C(=N)N[C@](C)(c3cccc(NC(=O)c4cncc(C#N)c4)c3Cl)CC2=O)CCO1` (relative stereo) [Example 74, N-(2-Chloro-3-{(4S)-2-imino-4-methyl-1-[(2R*,4R*)-2-methyl-tetrahydropyran-4-yl]-6-oxo-hexahydropyrimidin-4-yl}phenyl)-5-cyanopyridine-3-carboxamide hydrochloride] has an IC50 of 109 nM. Compound `COc1ccc(S(C)(=O)=O)cc1C(=O)Nc1cccc([C@]2(C)CC(=O)N([C@@H]3CCO[C@H](C)C3)C(=N)N2)c1Cl` (relative stereo) [Example 85, N-(2-Chloro-3-{(4S)-2-imino-4-methyl-1-[(2R*,4R*)-2-methyl-tetrahydropyran-4-yl]-6-oxo-hexahydropyrimidin-4-yl}phenyl)-2-methoxy-5-(methylsulfonyl)-benzamide trifluoroacetic acid salt] has an IC50 of 76 nM. In the case of `C[C@@H]1C[C@H](N2C(=N)N[C@](C)(c3cccc(NC(=O)c4ccc(C(F)(F)F)nc4)c3Cl)CC2=O)CCO1` (relative stereo) [Example 21, N-(2-Chloro-3-{(4S)-2-imino-4-methyl-1-[(2R*,4R*)-2-methyl-tetrahydropyran-4-yl]-6-oxo-hexahydropyrimidin-4-yl}phenyl)-6-(trifluoromethyl)pyridine-3-carboxamide hydrochloride], the IC50 is reported as 231 nM. Compound `C[C@@H]1C[C@H](N2C(=N)N[C@](C)(c3cccc(NC(=O)c4ccc(C#N)o4)c3Cl)CC2=O)CCO1` (relative stereo) [Example 115, N-(2-Chloro-3-{(4S)-2-imino-4-methyl-1-[(2R*,4R*)-2-methyl-tetrahydropyran-4-yl]-6-oxo-hexahydropyrimidin-4-yl]phenyl)-5-cyanofuran-2-carboxamide trifluoroacetic acid salt] has an IC50 of 18 nM. `Cc1ccnc(C(=O)Nc2cccc([C@]3(C)CC(=O)N([C@@H]4CCO[C@H](C)C4)C(=N)N3)c2Cl)n1` (relative stereo) [Example 78, N-(2-Chloro-3-{(4S)-2-imino-4-methyl-1-[(2R*,4R*)-2-methyl-tetrahydropyran-4-yl]-6-oxo-hexahydropyrimidin-4-yl}phenyl)-4-methylpyrimidine-2-carboxamide hydrochloride] showed an IC50 of 27 nM. `C[C@@H]1C[C@H](N2C(=N)N[C@](C)(c3cccc(NC(=O)c4cn(C)c5ccccc45)c3Cl)CC2=O)CCO1` (relative stereo) [Example 27, N-(2-Chloro-3-{(4S)-2-imino-4-methyl-1-[(2R*,4R*)-2-methyl-tetrahydropyran-4-yl]-6-oxo-hexahydropyrimidin-4-yl}phenyl)-1-methylindole-3-carboxamide trifluoroacetic acid salt] was tested, and the IC50 was 29 nM. `C[C@@H]1C[C@H](N2C(=N)N[C@](C)(c3cccc(NC(=O)c4ncc(F)cc4F)c3Cl)CC2=O)CCO1` (relative stereo) [Example 100, N-(2-Chloro-3-{(4S)-2-imino-4-methyl-1-[(2R*,4R*)-2-methyl-tetrahydropyran-4-yl]-6-oxo-hexahydropyrimidin-4-yl}phenyl)-3,5-difluoropyridine-2-carboxamide hydrochloride] showed an IC50 of 33 nM. With `C[C@@H]1C[C@H](N2C(=N)N[C@](C)(c3cccc(NC(=O)c4ncccc4C(F)(F)F)c3Cl)CC2=O)CCO1` (relative stereo) [Example 49, N-(2-Chloro-3-{(4S)-2-imino-4-methyl-1-[(2R*,4R*)-2-methyl-tetrahydropyran-4-yl]-6-oxo-hexahydropyrimidin-4-yl]phenyl)-3-(trifluoromethyl)pyridine-2-carboxamide trifluoroacetic acid salt] the IC50 was 17 nM. `COc1ccc2ccccc2c1C(=O)Nc1cccc([C@]2(C)CC(=O)N([C@@H]3CCO[C@H](C)C3)C(=N)N2)c1Cl` (relative stereo) [Example 79, N-(2-Chloro-3-{(4S)-2-imino-4-methyl-1-[(2R*,4R*)-2-methyl-tetrahydropyran-4-yl]-6-oxo-hexahydropyrimidin-4-yl]phenyl)-2-methoxynaphthalene-1-carboxamide trifluoroacetic acid salt] was tested, and the IC50 was 61 nM. `C[C@@H]1C[C@H](N2C(=N)N[C@](C)(c3cccc(NC(=O)c4ccc(Cl)cc4)c3Cl)CC2=O)CCO1` (relative stereo) [Example 9, 4-Chloro-N-(2-chloro-3-{(4S)-2-imino-4-methyl-1-[(2R*,4R*)-2-methyltetrahydropyran-4-yl]-6-oxo-hexahydropyrimidin-4-yl}phenyl)-benzamide hydrochloride] showed an IC50 of 52 nM. Compound `C[C@@H]1C[C@H](N2C(=N)N[C@](C)(c3cccc(NC(=O)c4ncccn4)c3Cl)CC2=O)CCO1` (relative stereo) [Example 15, N-(2-Chloro-3-{(4S)-2-imino-4-methyl-1-[(2R*,4R*)-2-methyl-tetrahydropyran-4-yl]-6-oxo-hexahydropyrimidin-4-yl}phenyl)-pyrimidine-2-carboxamide hydrochloride] has an IC50 of 37 nM. In the case of `C[C@@H]1C[C@H](N2C(=N)N[C@](C)(c3cccc(NC(=O)c4cc(F)cc(F)c4)c3Cl)CC2=O)CCO1` (relative stereo) [Example 42, N-(2-Chloro-3-{(4S)-2-imino-4-methyl-1-[(2R*,4R*)-2-methyl-tetrahydropyran-4-yl]-6-oxo-hexahydropyrimidin-4-yl]phenyl)-3,5-difluorobenzamide trifluoroacetic acid salt], the IC50 is reported as 42 nM. `C[C@@H]1CC(N2C(=N)N[C@](C)(c3cccc(NC(=O)c4cc(Cl)ccc4OC(F)F)c3Cl)CC2=O)CCO1` (relative stereo) [Example 84, 5-Chloro-N-(2-chloro-3-{(4S)-2-imino-4-methyl-1-[(2R*,4R*)-2-methyltetrahydropyran-4-yl]-6-oxo-hexahydropyrimidin-4-yl]phenyl)-2-(difluoromethoxy)benzamide trifluoroacetic acid salt] showed an IC50 of 37 nM. In the case of `COc1cccnc1C(=O)Nc1cccc([C@]2(C)CC(=O)N([C@@H]3CCO[C@H](C)C3)C(=N)N2)c1Cl` (relative stereo) [Example 50, N-(2-Chloro-3-{(4S)-2-imino-4-methyl-1-[(2R*,4R*)-2-methyl-tetrahydropyran-4-yl]-6-oxo-hexahydropyrimidin-4-yl}phenyl)-3-methoxypyridine-2-carboxamide trifluoroacetic acid salt], the IC50 is reported as 56 nM. `C[C@@H]1C[C@H](N2C(=N)N[C@](C)(c3cccc(NC(=O)c4cnccn4)c3Cl)CC2=O)CCO1` (relative stereo) [Example 14, N-(2-Chloro-3-{(4S)-2-imino-4-methyl-1-[(2R*,4R*)-2-methyl-tetrahydropyran-4-yl]-6-oxo-hexahydropyrimidin-4-yl}phenyl)-pyrazine-2-carboxamide hydrochloride] gave an IC50 of 14 nM. With `C[C@@H]1C[C@H](N2C(=N)N[C@](C)(c3cccc(NC(=O)c4cc(C#N)ccn4)c3Cl)CC2=O)CCO1` (relative stereo) [Example 75, N-(2-Chloro-3-{(4S)-2-imino-4-methyl-1-[(2R*,4R*)-2-methyl-tetrahydropyran-4-yl]-6-oxo-hexahydropyrimidin-4-yl}phenyl)-4-cyanopyridine-2-carboxamide hydrochloride] the IC50 was 20 nM.
